Laboratory results taken from ChEMBL document CHEMBL1130995, “Anti-AIDS agents. 32. Synthesis and anti-HIV activity of betulin derivatives” (Bioorg Med Chem Lett, 1998).

How the values were obtained:
H9 [1] = test: Compound was evaluated for cytotoxicity in H9 lymphocytes; assay type: functional, cell-based; details: Homo sapiens
H9 [2] = test: Compound was evaluated for anti-HIV activity in H9 lymphocytes; assay type: functional, cell-based; details: Homo sapiens

| Compound | IC50 (H9 [1]) | EC50 (H9 [2]) |
| --- | --- | --- |
| C=C(C)[C@@H]1CC[C@]2(CO)CC[C@]3(C)[C@H](CC[C@@H]4[C@@]5(C)CC[C@H](O)C(C)(C)[C@@H]5CC[C@]43C)[C@@H]12 [BETULIN] | 43.7 µM | 23 µM |
| Cc1cn([C@H]2C[C@H](N=[N+]=[N-])[C@@H](CO)O2)c(=O)[nH]c1=O [ZIDOVUDINE] |  | 0.015 µM |
| C=C(C)[C@@H]1CC[C@]2(COC(=O)CC(C)(C)CC(=O)O)CC[C@]3(C)[C@H](CC[C@@H]4[C@@]5(C)CC[C@H](O)C(C)(C)[C@@H]5CC[C@]43C)[C@@H]12 | 28.2 µM | 3.6 µM |
| C=C(C)[C@@H]1CC[C@]2(CO)CC[C@]3(C)[C@H](CC[C@@H]4[C@@]5(C)CC=CC(C)(C)[C@@H]5CC[C@]43C)[C@@H]12 | 31.9 µM | 11.9 µM |
| C=C(C)[C@@H]1CC[C@]2(COC(=O)CC3(CC(=O)O)CCCC3)CC[C@]3(C)[C@H](CC[C@@H]4[C@@]5(C)CC[C@H](OC(=O)CC6(CC(=O)O)CCCC6)C(C)(C)[C@@H]5CC[C@]43C)[C@@H]12 | 20.5 µM | 0.077 µM |
| C=C(C)[C@@H]1CC[C@]2(COC(=O)CC(C)(C)CC(=O)O)CC[C@]3(C)[C@H](CC[C@@H]4[C@@]5(C)CCC(=O)C(C)(C)[C@@H]5CC[C@]43C)[C@@H]12 | 29.2 µM | 10 µM |
| C=C(C)[C@@H]1CC[C@]2(COC(=O)CC(C)(C)CC(=O)O)CC[C@]3(C)[C@H](CC[C@@H]4[C@@]5(C)CC[C@H](OC(=O)CC(C)(C)CC(=O)O)C(C)(C)[C@@H]5CC[C@]43C)[C@@H]12 | 14.2 µM | 0.00066 µM |
| CCC(C)(CC(=O)O)CC(=O)OC[C@]12CC[C@@H](C(C)C)[C@@H]1[C@H]1CC[C@@H]3[C@@]4(C)CC[C@H](OC(=O)CC(C)(CC)CC(=O)O)C(C)(C)[C@@H]4CC[C@@]3(C)[C@]1(C)CC2 (some centres undefined) | 18.7 µM | 0.075 µM |
| C=C(C)[C@@H]1CC[C@]2(C(=O)O)CC[C@]3(C)[C@H](CC[C@@H]4[C@@]5(C)CC[C@H](OC(=O)CC(C)(C)CC(=O)O)C(C)(C)[C@@H]5CC[C@]43C)[C@@H]12 |  | 0.0023 µM |
| C=C(C)[C@@H]1CC[C@]2(COC(=O)CC(C)(C)CC(=O)O)CC[C@]3(C)[C@H](CC[C@@H]4[C@@]5(C)CC=CC(C)(C)[C@@H]5CC[C@]43C)[C@@H]12 | 28.3 µM | 5.4 µM |
| CC(C)[C@@H]1CC[C@]2(COC(=O)CC(C)(C)CC(=O)O)CC[C@]3(C)[C@H](CC[C@@H]4[C@@]5(C)CC[C@H](OC(=O)CC(C)(C)CC(=O)O)C(C)(C)[C@@H]5CC[C@]43C)[C@@H]12 | 10.6 µM | 0.0047 µM |
| CC(C)[C@@H]1CC[C@]2(COC(=O)CC3(CC(=O)O)CCCC3)CC[C@]3(C)[C@H](CC[C@@H]4[C@@]5(C)CC[C@H](OC(=O)CC6(CC(=O)O)CCCC6)C(C)(C)[C@@H]5CC[C@]43C)[C@@H]12 | 21.6 µM | 0.58 µM |
| C=C(C)[C@@H]1CC[C@]2(COC(=O)CC(C)(CC)CC(=O)O)CC[C@]3(C)[C@H](CC[C@@H]4[C@@]5(C)CC[C@H](OC(=O)CC(C)(CC)CC(=O)O)C(C)(C)[C@@H]5CC[C@]43C)[C@@H]12 (some centres undefined) | 18.4 µM | 0.0053 µM |
